According to patent publication US20150252051A1, “RETINOIC ACID RECEPTOR-RELATED ORPHAN RECEPTOR MODULATORS AND USES THEREOF” (INNOV17 LLC, priority 2014, published 2015):

Legend:
Format in all cases: cell-based
Conditions in all cases: 72 h; human CD4+ T cells under TH17-polarizing conditions, 3 days; supernatant ELISA
IL-17A = test: Human TH17 cytokine inhibition as measured by ELISA (IL-17A)
Experimental: (§1) Human TH17 Cytokine Inhibition as Measured by ELISA Peripheral blood mononuclear cells (PBMCs) were sourced from freshly prepared leukocyte enriched plasma (buffy coat) from healthy donors (New York Blood Center). PBMCs were isolated by density gradient centrifugation using Ficoll-Paque™ PLUS (GE Healthcare). Human CD4+ T cells were seeded into 96-well plates (5×10^4 cells/well) and activated with plate-bound anti-human (h)-CD3 antibody and soluble h-aCD28 (both at 1 ug/ml; eBioscience) and differentiated into TH17 cells with 20 ng/mL h-IL-6, 5 ng/mL h-TGF-β1, 10 ng/mL h-IL-23 (eBioscience) and 10 ng/mL IL-1β (Miltenyi Biotec) in serum-free TexMACS Medium (Miltenyi Biotec) supplemented with 1% Penicillin/Streptomycin (Lonza) for 3 days. CD4+ T cells propagated under TH17-polarizing conditions were cultured in the presence or absence of various concentrations of compounds with a final concentration of 0.1% DMSO. Supernatants were collected and stored at −20° C. until assayed for IL-17A, IL-17F and IL-21 levels by “Ready-Set-Go” ELISA kits (eBioscience) as per manufacturer's instructions. Endpoint absorbance was read at 450 nm using a microplate reader (Perkin Elmer).

IL-17F = test: Human TH17 cytokine inhibition as measured by ELISA (IL-17F)
Experimental: as §1

IL-21 = test: Human TH17 cytokine inhibition as measured by ELISA (IL-21)
Experimental: as §1

Measured: IC50

O=C(c1ccccc1)N1C2CCC1C(CN1CCc3cc(-c4cn[nH]c4)ccc31)C2 (stereo not drawn) [Example 9, (2-((5-(1H-pyrazol-4-yl)-1H-indolin-1-yl)methyl)-7-azabicyclo[2.2.1]heptan-7-yl)(phenyl)methanone]
< 10 µM: all assays above

O=C(Cc1ccccc1)N1C2CCC1C(Cn1ccc3cc(-c4cn[nH]c4)ccc31)C2 (stereo not drawn) [Example 10, 1-(2-((5-(1H-pyrazol-4-yl)-1H-indol-1-yl)methyl)-7-azabicyclo[2.2.1]heptan-7-yl)-2-phenylethanone]
< 10 µM: all assays above

O=C(CCc1ccccc1)N1C2CCC1C(Cn1ccc3cc(-c4cn[nH]c4)ccc31)C2 (stereo not drawn) [Example 11, 1-(2-((5-(1H-pyrazol-4-yl)-1H-indol-1-yl)methyl)-7-azabicyclo[2.2.1]heptan-7-yl)-3-phenylpropan-1-one]
< 10 µM: all assays above

O=C(C1CCCCC1)N1C2CCC1C(Cn1ccc3cc(-c4cn[nH]c4)ccc31)C2 (stereo not drawn) [Example 12, (2-((5-(1H-pyrazol-4-yl)-1H-indol-1-yl)methyl)-7-azabicyclo[2.2.1]heptan-7-yl)(cyclohexyl)methanone]
< 10 µM: all assays above

O=C(CC1CCCCC1)N1C2CCC1C(Cn1ccc3cc(-c4cn[nH]c4)ccc31)C2 (stereo not drawn) [Example 13]
< 10 µM: all assays above

CC(C)CC(=O)N1C2CCC1C(Cn1ccc3cc(-c4cn[nH]c4)ccc31)C2 (stereo not drawn) [Example 14, 1-(2-((5-(1H-pyrazol-4-yl)-1H-indol-1-yl)methyl)-7-azabicyclo[2.2.1]heptan-7-yl)-3-methylbutan-1-one]
< 10 µM: all assays above

CC(C)C(=O)N1C2CCC1C(Cn1ccc3cc(-c4cn[nH]c4)ccc31)C2 (stereo not drawn) [Example 15, 1-(2-((5-(1H-pyrazol-4-yl)-1H-indol-1-yl)methyl)-7-azabicyclo[2.2.1]heptan-7-yl)-2-methylpropan-1-one]
< 10 µM: all assays above
